In ChEMBL document CHEMBL1817633, “Evaluation of a cell penetrating prenylated peptide lacking an intrinsic fluorophore via in situ click reaction” (Bioorg Med Chem Lett, 2011):
Peptide text beside a SMILES is read from it. * marks the point of attachment. Geranylgeranyl = CC(C)=CCC/C(C)=C/CC/C(C)=C/CC/C(C)=C/C*; X1 = O=C(O)c1cc(C(=O)*)ccc1-c1c2ccc(=O)cc-2oc2cc(O)ccc12; Pent4ynoyl = C#CCCC(=O)*

How the values were obtained:
Format in all cases: ADME, cell-based
HeLa [1] = test: Cellular uptake in human HeLa cells at 1 uM after 2 hrs by confocal laser scanning microscopy
HeLa [2] = test: Cellular uptake in human HeLa cells assessed as nuclear localization at 1 uM after 2 hrs by confocal laser scanning microscopy
HeLa [3] = test: Cellular uptake in human HeLa cells at 1 to 5 uM treated for 1 hr followed by washout measured after 1 hr by flow cytometry

SMILES | Drug uptake (HeLa [1]) | Drug uptake (HeLa [2]) | Drug uptake (HeLa [3])
C#CCCC(=O)N[C@@H](CCCCNC(C)=O)C(=O)N[C@@H](C)C(=O)N[C@@H](CCCCN)C(=O)N[C@@H](CCCCN)C(=O)N[C@@H](CO)C(=O)N[C@@H](CCCNC(=N)N)C(=O)N[C@@H](CCCNC(=N)N)C(=O)N[C@@H](CSC/C=C(\C)CC/C=C(\C)CC/C=C(\C)CCC=C(C)C)C(N)=O (Pent4ynoyl-K(Ac)AKKSRRC(Geranylgeranyl)-NH2) | Active | Active | 
C#CCCC(=O)N[C@@H](CCCCNC(=O)c1ccc(-c2c3ccc(=O)cc-3oc3cc(O)ccc23)c(C(=O)O)c1)C(=O)N[C@@H](C)C(=O)N[C@@H](CCCCN)C(=O)N[C@@H](CCCCN)C(=O)N[C@@H](CO)C(=O)N[C@@H](CCCNC(=N)N)C(=O)N[C@@H](CCCNC(=N)N)C(=O)N[C@@H](CSC/C=C(\C)CC/C=C(\C)CC/C=C(\C)CCC=C(C)C)C(N)=O (Pent4ynoyl-K(X1)AKKSRRC(Geranylgeranyl)-NH2) | Active | Not Active | Active
